According to PubChem BioAssay (NCI):
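Method: 48-hour compound exposure of cells in 96-well plates, five concentrations, linear interpolation of endpoints. GI50 = concentration required for 50% inhibition of growth. TGI is the concentration that stops growth completely.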

Key:
Experiment in all cases: NCI anticancer screen, dose series, 48 h
NCI/ADR-RES ovarian = tested on: NCI/ADR-RES ovarian
SK-MEL-5 melanoma = tested on: SK-MEL-5 melanoma
SNB-75 CNS = tested on: SNB-75 CNS
NCI-H226 lung = tested on: NCI-H226 lung
SK-OV-3 ovarian = tested on: SK-OV-3 ovarian
SK-MEL-28 melanoma = tested on: SK-MEL-28 melanoma
SK-MEL-2 melanoma = tested on: SK-MEL-2 melanoma
SN12C renal = tested on: SN12C renal
HOP-92 NSCLC = tested on: HOP-92 NSCLC
OVCAR-8 ovarian = tested on: OVCAR-8 ovarian
IGROV1 ovarian = tested on: IGROV1 ovarian
786-0 renal = tested on: 786-0 renal
HCC-2998 colon = tested on: HCC-2998 colon
CAKI-1 renal = tested on: CAKI-1 renal
OVCAR-4 ovarian = tested on: OVCAR-4 ovarian
A549 NSCLC = tested on: A549 NSCLC
U251 CNS = tested on: U251 CNS
MALME-3M melanoma = tested on: MALME-3M melanoma
UO-31 renal = tested on: UO-31 renal
RPMI-8226 leukemia = tested on: RPMI-8226 leukemia
PC-3 prostate = tested on: PC-3 prostate
DU-145 prostate = tested on: DU-145 prostate
HOP-62 NSCLC = tested on: HOP-62 NSCLC
MCF7 breast = tested on: MCF7 breast
RXF 393 renal = tested on: RXF 393 renal
MOLT-4 leukemia = tested on: MOLT-4 leukemia
BT-549 breast = tested on: BT-549 breast
UACC-257 melanoma = tested on: UACC-257 melanoma
SF-539 CNS = tested on: SF-539 CNS
COLO 205 colon = tested on: COLO 205 colon
K-562 leukemia = tested on: K-562 leukemia
A498 renal = tested on: A498 renal
CCRF-CEM leukemia = tested on: CCRF-CEM leukemia
T-47D breast = tested on: T-47D breast
MDA-MB-435 = tested on: MDA-MB-435
TK-10 renal = tested on: TK-10 renal
NCI-H460 lung = tested on: NCI-H460 lung
SR leukemia = tested on: SR leukemia
SF-268 CNS = tested on: SF-268 CNS
UACC-62 melanoma = tested on: UACC-62 melanoma
HCT-15 colon = tested on: HCT-15 colon
KM12 colon = tested on: KM12 colon
MDA-MB-231 breast = tested on: MDA-MB-231 breast
MDA-MB-468 breast = tested on: MDA-MB-468 breast
M14 melanoma = tested on: M14 melanoma
HL-60(TB) leukemia = tested on: HL-60(TB) leukemia
NCI-H522 lung = tested on: NCI-H522 lung
HT29 colon = tested on: HT29 colon
SNB-19 CNS = tested on: SNB-19 CNS
HCT-116 colon = tested on: HCT-116 colon
HS 578T breast = tested on: HS 578T breast
SF-295 CNS = tested on: SF-295 CNS
NCI-H23 lung = tested on: NCI-H23 lung
SW-620 colon = tested on: SW-620 colon
ACHN renal = tested on: ACHN renal
EKVX NSCLC = tested on: EKVX NSCLC
OVCAR-3 ovarian = tested on: OVCAR-3 ovarian
OVCAR-5 ovarian = tested on: OVCAR-5 ovarian

Cn1cc(-c2cc(N)n3nc(-c4cn(C)c5ccccc45)cc3n2)c2cc(F)ccc21
GI50 (NCI/ADR-RES ovarian): 2.41 µM | TGI (NCI/ADR-RES ovarian): 6.26 µM | GI50 (SK-MEL-5 melanoma): 1.87 µM | TGI (SK-MEL-5 melanoma): 3.89 µM | GI50 (SNB-75 CNS): 12.9 µM | TGI (SNB-75 CNS): 28.6 µM | GI50 (NCI-H226 lung): 21.7 µM | TGI (NCI-H226 lung): 68.5 µM | GI50 (SK-OV-3 ovarian): 3.32 µM | TGI (SK-OV-3 ovarian): 12.5 µM | GI50 (SK-MEL-28 melanoma): 1.78 µM | TGI (SK-MEL-28 melanoma): 3.44 µM | GI50 (SK-MEL-2 melanoma): 1.82 µM | TGI (SK-MEL-2 melanoma): 3.63 µM | GI50 (SN12C renal): 1.71 µM | TGI (SN12C renal): 3.14 µM | GI50 (HOP-92 NSCLC): 2.06 µM | TGI (HOP-92 NSCLC): 4.2 µM | GI50 (OVCAR-8 ovarian): 1.97 µM | TGI (OVCAR-8 ovarian): 3.95 µM | GI50 (IGROV1 ovarian): 2.19 µM | TGI (IGROV1 ovarian): 5.18 µM | GI50 (786-0 renal): 1.51 µM | TGI (786-0 renal): 2.92 µM | GI50 (HCC-2998 colon): 1.78 µM | TGI (HCC-2998 colon): 3.32 µM | GI50 (CAKI-1 renal): 1.84 µM | TGI (CAKI-1 renal): 3.98 µM | GI50 (OVCAR-4 ovarian): 2.49 µM | TGI (OVCAR-4 ovarian): 6.55 µM | GI50 (A549 NSCLC): 2.17 µM | TGI (A549 NSCLC): 6.44 µM | GI50 (U251 CNS): 1.82 µM | TGI (U251 CNS): 3.51 µM | GI50 (MALME-3M melanoma): 1.72 µM | TGI (MALME-3M melanoma): 3.14 µM | GI50 (UO-31 renal): 1.62 µM | TGI (UO-31 renal): 3.06 µM | GI50 (RPMI-8226 leukemia): 2.93 µM | TGI (RPMI-8226 leukemia): 8.56 µM | GI50 (PC-3 prostate): 2.2 µM | TGI (PC-3 prostate): 5.54 µM | GI50 (DU-145 prostate): 4.15 µM | TGI (DU-145 prostate): 22.3 µM | GI50 (HOP-62 NSCLC): 1.96 µM | TGI (HOP-62 NSCLC): 4.82 µM | GI50 (MCF7 breast): 1.77 µM | TGI (MCF7 breast): 3.95 µM | GI50 (RXF 393 renal): 1.97 µM | TGI (RXF 393 renal): 3.72 µM | GI50 (MOLT-4 leukemia): 2.44 µM | TGI (MOLT-4 leukemia): 7.25 µM | GI50 (BT-549 breast): 10.5 µM | TGI (BT-549 breast): 25.3 µM | GI50 (UACC-257 melanoma): 1.75 µM | TGI (UACC-257 melanoma): 3.39 µM | GI50 (SF-539 CNS): 1.76 µM | TGI (SF-539 CNS): 3.34 µM | GI50 (COLO 205 colon): 1.89 µM | TGI (COLO 205 colon): 3.57 µM | GI50 (K-562 leukemia): 2.72 µM | TGI (K-562 leukemia): 7.52 µM | GI50 (A498 renal): 14.6 µM | TGI (A498 renal): 29 µM | GI50 (CCRF-CEM leukemia): 3.19 µM | TGI (CCRF-CEM leukemia): 24.2 µM | GI50 (T-47D breast): 2.63 µM | TGI (T-47D breast): 8.91 µM | GI50 (MDA-MB-435): 1.78 µM | TGI (MDA-MB-435): 3.33 µM | GI50 (TK-10 renal): 2.01 µM | TGI (TK-10 renal): 8.26 µM | GI50 (NCI-H460 lung): 2.02 µM | TGI (NCI-H460 lung): 4.2 µM | GI50 (SR leukemia): 2.16 µM | TGI (SR leukemia): 7.54 µM | GI50 (SF-268 CNS): 3.35 µM | TGI (SF-268 CNS): 13.4 µM | GI50 (UACC-62 melanoma): 1.68 µM | TGI (UACC-62 melanoma): 3.09 µM | GI50 (HCT-15 colon): 1.79 µM | TGI (HCT-15 colon): 4.02 µM | GI50 (KM12 colon): 2.47 µM | TGI (KM12 colon): 6.13 µM | GI50 (MDA-MB-231 breast): 1.97 µM | TGI (MDA-MB-231 breast): 3.66 µM | GI50 (MDA-MB-468 breast): 1.92 µM | TGI (MDA-MB-468 breast): 4.11 µM | GI50 (M14 melanoma): 1.83 µM | TGI (M14 melanoma): 3.52 µM | GI50 (HL-60(TB) leukemia): 2.1 µM | TGI (HL-60(TB) leukemia): 5.11 µM | GI50 (NCI-H522 lung): 1.65 µM | TGI (NCI-H522 lung): 3.42 µM | GI50 (HT29 colon): 1.74 µM | TGI (HT29 colon): 3.34 µM | GI50 (SNB-19 CNS): 3.09 µM | TGI (SNB-19 CNS): 12.7 µM | GI50 (HCT-116 colon): 1.76 µM | TGI (HCT-116 colon): 3.18 µM | GI50 (HS 578T breast): 2.39 µM | TGI (HS 578T breast): 6.45 µM | GI50 (SF-295 CNS): 1.78 µM | TGI (SF-295 CNS): 3.68 µM | GI50 (NCI-H23 lung): 2.08 µM | TGI (NCI-H23 lung): 4.78 µM | GI50 (SW-620 colon): 2.01 µM | TGI (SW-620 colon): 4.05 µM | GI50 (ACHN renal): 1.77 µM | TGI (ACHN renal): 3.45 µM | GI50 (EKVX NSCLC): 3.02 µM | TGI (EKVX NSCLC): 15.7 µM | GI50 (OVCAR-3 ovarian): 2.69 µM | TGI (OVCAR-3 ovarian): 6.53 µM | GI50 (OVCAR-5 ovarian): 2.37 µM | TGI (OVCAR-5 ovarian): 6.49 µM
